According to US9365541B2, “Compounds for use in the treatment of parasitic diseases” (IRBM—SCIENCE PARK S.P.A., priority 2012, dated 2016):

Columns and labels:
human HDAC1 = target: T1, human HDAC1 (Homo sapiens, UniProt Q13547); test: Homo sapiens HDAC1 inhibition assay (Fluor-de-Lys, enzymatic); assay type: biochemical; conditions: human HDAC enzymatic assay; read-out: hHDAC IC50
T1 construct: made in house; host or cells: HeLa (ATCC CCL-2), mammalian cells
Description: Biology Homo sapiens HDAC1 Inhibition Assay Overview:
The aim of the assay is to evaluate the inhibition of the deacetylase activity of human HDAC1. To such goal an acetylated substrate is added to the enzyme mix; the resulting enzymatic product is converted to a fluorescent molecule by the addition the enzyme trypsine (developer solution). Fluorescence intensity is inversely proportional to the rate of inhibition of the enzyme (as indicated in the material section below).
Reagents of the HDAC Fluorescent Activity Assay are purchased from Enzo Life Sciences (http://www.enzolifesciences.com/BML-AK500/fluor-de-lys-hdac-fluorometric-activity-assay-kit/) and feature the Fluor-de-Lys™ Substrate/Developer System.
c) Trichostatin A (TSA) Stock
TSA (Sigma-Aldrich, T8552) is provided as a 10 mM stock solution in 100% dimethylsulfoxide (DMSO).
Diluted Substrate Solution
The final concentration in the assay is 20 μM.
Diluted Developer Solution
2 μM [final] TSA to this solution increases its ability to stop the reaction.
The HDAC1 enzyme is diluted in assay buffer prior to each use from a fresh aliquot of enzyme.
The final concentration in the assay is 1-2 nM.
Test compounds should be prepared in 100% DMSO and transferred to the assay by a nano volume dispenser to reach the appropriate concentration and the appropriate DMSO concentration (0.25%) in the reaction.

[1] = system: Plasmodium falciparum 3D7; test: P. falciparum growth inhibition assay (Pf-LDH); assay type: cell-based; conditions: Plasmodium falciparum, Erythrocyte; P. falciparum 3D7 infected erythrocytes, 72 h incubation, PfLDH readout
Description: Basic culture of Plasmodium falciparum 3D7 parasites (Malaria Research and Reference Reagent Resource Center (MR4), MR4 Number: MRA-102).
Starting with a culture with a parasitemia of about 10% (and 5% hematocrit), 0.5 ml of the culture is placed in a fresh 100 mm petri dish with 0.95 ml of fresh erythrocytes (50% hematocrit) and 8.55 ml of culture medium, giving a new starting parasitemia of 0.5%. The petri dish is then incubated at 37° C. in a humidified gas-tight plastic box flushed with a gas mixture consisting of 93% N2, 4% CO2, and 3% O2. The culture medium is changed daily. The supernatant is removed by gently tipping the dish without disturbing the settled cells and aspirating the medium with a Pasteur pipette connected to a vacuum pump. A small amount of the concentrated cells is taken to prepare a blood smear for determination of the parasitemia. Normally, the cultures are split twice a week. If the parasites are growing very slowly then fresh erythrocytes are added to the culture no later than after 7 days. The cultures are then split 1:2 if the parasitemia is lower than 0.5%. To avoid the necessity of daily medium change on weekends, a culture with a 2.5% hematocrit and 0.1-0.2% parasitemia is set up and can be left for 3 days without medium change.
Standard medium consists of RPMI 1640, supplemented with 25 mM HEPES, 24 mM NaHCO3, 0.36 mM hypoxanthine, 100 μg/ml Neomycin, 5 g/1 Albumax® II, and washed human red blood cells (rbcs) A+.
P. falciparum Growth Inhibition Assay (Pf-LDH)
Compounds of the invention were assessed for in vitro antimalarial activity against a cloroquine sensitive (3D7) strain of the malaria parasite Plasmodium falciparum, using a lactate dehydrogenase (PfLDH) assay.
EC50 Determination by Pf-LDH Assay
384 plates (where compounds to be tested are dispensed) with 25 μl of parasite inoculum (parasitemia: 0.25%, hematocrit: 2%) are incubated at 37° C. in an atmosphere of 4% CO2, 3% O2, 93% N2. After 72 h of incubation, plates are frozen at −70° C. overnight and thawed at room temperature for at least 4 h. To evaluate PfLDH activity, 70 μl of freshly made reaction mix (143 mM sodium L-lactate, 143 μM 3-acetyl pyridine adenine dinucleotide (APAD), 178.75 μM Nitro Blue tetrazolium chloride (NBT), 286 μg/ml diaphorase (2.83 U/ml), 0.7% Tween 20, 100 mM Tris-HCl pH 8.0) is dispensed using a Multidrop Combi dispenser. Plates are shaken to ensure mixing and absorbance at 650 nm is monitored in a plate reader after 10 min of incubation at room temperature.
Negative controls (0% Effect) are produced by addition of DMSO to the proper wells.
Positive controls (100% Effect) are produced by addition of 150 nM Artemisinin (Sigma-Aldrich, 361593)
After result normalization using positive and negative controls, compound potency is determined by fitting the following equation: % inh=Ymin+(Ymax−Ymin)/(1+(X/EC50)^slope)) Where: • Ymin=minimum percentage effect • Ymax=maximum percentage effect • EC50=the concentration of the compound at which 50% effect is reached • Slope=the slope of the curve calculated at the EC50 Histone Hyperacetylation and Immunodetection of Altered Histone Modifications Assay

T1 sequence (Q13547 whole entry): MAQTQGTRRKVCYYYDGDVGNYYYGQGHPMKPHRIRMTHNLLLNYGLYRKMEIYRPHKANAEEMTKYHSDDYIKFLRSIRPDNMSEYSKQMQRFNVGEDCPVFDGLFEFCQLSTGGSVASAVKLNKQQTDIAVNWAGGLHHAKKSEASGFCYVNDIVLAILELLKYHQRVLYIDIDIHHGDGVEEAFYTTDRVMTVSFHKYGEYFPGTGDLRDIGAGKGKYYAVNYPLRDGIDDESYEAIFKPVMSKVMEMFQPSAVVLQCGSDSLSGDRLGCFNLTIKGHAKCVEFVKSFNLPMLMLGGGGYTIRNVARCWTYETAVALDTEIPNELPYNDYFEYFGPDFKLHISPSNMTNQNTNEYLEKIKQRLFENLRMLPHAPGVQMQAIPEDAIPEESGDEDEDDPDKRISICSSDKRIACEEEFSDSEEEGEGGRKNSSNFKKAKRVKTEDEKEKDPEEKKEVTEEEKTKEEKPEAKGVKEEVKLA

Compound	IC50 (human HDAC1) [nM]	EC50 [1] [nM]
CNC(=O)CCCCC[C@H](NC(=O)Cc1cnc2ncnn2c1)c1ncc(-c2ccc3ccccc3c2)[nH]1 [Entry 22, (S)-7-(2-([1,2,4]triazolo[1,5-a]pyrimidin-6-yl)acetamido)-N-methyl-7-(5-(naphthalen-2-yl)-1H-imidazol-2-yl)heptanamide]	< 1000	< 1000
CNC(=O)CCCCC[C@H](NC(=O)CN1CCOCC1)c1ncc(-c2ccc3ccccc3c2)[nH]1 [Entry 23, (S)-N-methyl-7-(2-morpholinoacetamido)-7-(5-(naphthalen-2-yl)-1H-imidazol-2-yl)heptanamide]	1000 to 5000	1000 to 5000
CNC(=O)CCCCC[C@H](NC(=O)c1cncs1)c1ncc(-c2ccc3[nH]ccc3c2)[nH]1 [Entry 24, (S)-N-(1-(5-(1H-indol-5-yl)-1H-imidazol-2-yl)-7-(methylamino)-7-oxoheptyl)thiazole-5-carboxamide]	1000 to 5000	< 1000
CCOc1cccc2cc(-c3cnc([C@H](CCCCCC(=O)NC)NC(=O)c4cncs4)[nH]3)ccc12 [Entry 25, (S)-N-(1-(5-(5-ethoxynaphthalen-2-yl)-1H-imidazol-2-yl)-7-(methylamino)-7-oxoheptyl)thiazole-5-carboxamide]	1000 to 5000	< 1000
CNC(=O)CCCCC[C@H](NC(=O)C1CN(C)C1)c1ncc(-c2ccc3ccccc3c2)[nH]1 [Entry 26]	< 1000	1000 to 5000
CNC(=O)CCCCC[C@H](NC(=O)CCn1ccnc1)c1ncc(-c2cc3ccccc3nc2OC)[nH]1 [Entry 27, (S)-7-(3-(1H-imidazol-1-yl)propanamido)-7-(5-(2-methoxyquinolin-3-yl)-1H-imidazol-2-yl)-N-methylheptanamide]	1000 to 5000	1000 to 5000
CCc1nc2ccccc2n1CCC(=O)N[C@@H](CCCCCC(=O)NC)c1ncc(-c2ccc(C(F)(F)F)cc2)[nH]1 [Entry 28]	< 1000	1000 to 5000
CNC(=O)CCCCC[C@H](NC(=O)c1cncs1)c1ncc(-c2ccc(-c3ccncc3)cc2)[nH]1 [Entry 29, (S)-N-(7-(methylamino)-7-oxo-1-(5-(4-(pyridin-4-yl)phenyl)-1H-imidazol-2-yl)heptyl)thiazole-5-carboxamide]	1000 to 5000	1000 to 5000
CNC(=O)CCCCC[C@H](NC(=O)c1csc(-c2cccnc2)n1)c1ncc(-c2cc3ccccc3nc2OC)[nH]1 [Entry 30]	> 5000	1000 to 5000
CNC(=O)CCCCC[C@H](NC(=O)c1nnc(C)s1)c1ncc(-c2cc3ccccc3nc2OC)[nH]1 [Entry 31, (S)-N-(1-(5-(2-methoxyquinolin-3-yl)-1H-imidazol-2-yl)-7-(methylamino)-7-oxoheptyl)-5-methyl-1,3,4-thiadiazole-2-carboxamide]	< 1000	1000 to 5000
CNC(=O)CCCCC[C@H](NC(=O)CN1CCC(N(C)C)C1)c1ncc(-c2cc3ccccc3nc2OC)[nH]1 (stereo partly drawn) [Entry 32, (7S)-7-(2-(3-(dimethyl-amino)pyrrolidin-1-yl)acetamido)-7-(5-(2-methoxyquinolin-3-yl)-1H-imidazol-2-yl)-N-methylheptanamide]	< 1000	> 5000
CNC(=O)CCCCC[C@H](NC(=O)C1CCCN(C)C1)c1ncc(-c2cc3ccccc3nc2OC)[nH]1 (stereo partly drawn) [Entry 33, N-((S)-1-(5-(2-methoxyquinolin-3-yl)-1H-imidazol-2-yl)-7-(methylamino)-7-oxoheptyl)-1-methylpiperidine-3-carboxamide]	< 1000	1000 to 5000
CNC(=O)CCCCC[C@H](NC(=O)c1cnsc1)c1ncc(-c2ccc3[nH]ncc3c2)[nH]1 [Entry 34, (S)-N-(1-(5-(1H-indazol-5-yl)-1H-imidazol-2-yl)-7-(methylamino)-7-oxoheptyl)isothiazole-4-carboxamide]	1000 to 5000	1000 to 5000
CNC(=O)CCCCC[C@H](NC(=O)c1cncs1)c1ncc(-c2cccc(CN)c2)[nH]1 [Entry 35, (S)-N-(1-(5-(3-(amino-methyl)phenyl)-1H-imidazol-2-yl)-7-(methylamino)-7-oxoheptyl)thiazole-5-carboxamide]	1000 to 5000	< 1000
CNC(=O)CCCCC[C@H](NC(=O)c1cncs1)c1ncc(-c2cnc3ccccc3c2)[nH]1 [Entry 36, (S)-N-(7-(methylamino)-7-oxo-1-(5-(quinolin-3-yl)-1H-imidazol-2-yl)heptyl)thiazole-5-carboxamide]	1000 to 5000	< 1000
CNC(=O)CCCCC[C@H](NC(=O)OCc1ccccc1)c1ncc(-c2ccc(-c3cc[nH]n3)cc2)[nH]1 [Entry 37, (S)-benzyl(1-(5-(4-(1H-pyrazol-3-yl)phenyl)-1H-imidazol-2-yl)-7-(methylamino)-7-oxoheptyl)carbamate]	< 1000	1000 to 5000
CNC(=O)CCCCC[C@H](NC(=O)CCc1c(C)nc2ncnn2c1C)c1ncc(-c2ccc(-n3cccn3)cc2)[nH]1 [Entry 38, (S)-7-(5-(4-(1H-pyrazol-1-yl)phenyl)-1H-imidazol-2-yl)-7-(3-(5,7-dimethyl-[1,2,4]triazolo[1,5-a]pyrimidin-6-yl)propanamido)-N-methylheptanamide]	1000 to 5000	1000 to 5000
CNC(=O)CCCCC[C@H](NC(=O)CC1=CSC2=NCCCN12)c1ncc(-c2ccc(-n3cccn3)cc2)[nH]1 [Entry 39, (S)-7-(5-(4-(1H-pyrazol-1-yl)phenyl)-1H-imidazol-2-yl)-7-(2-(6,7-dihydro-5H-thiazolo[3,2-a]pyrimidin-3-yl)acetamido)-N-methylheptanamide]	1000 to 5000	1000 to 5000
CNC(=O)CCCCC[C@H](NC(=O)C1(C)CCOCC1)c1ncc(-c2ccc3ccccc3c2)[nH]1 [Entry 40]	1000 to 5000	1000 to 5000
CNC(=O)CCCCC[C@H](NC(=O)c1ccc(N2CC(=O)NC2=O)cc1)c1ncc(-c2ccc3ccccc3c2)[nH]1 [Entry 41, (S)-4-(2,4-dioxoimidazolidin-1-yl)-N-(7-(methylamino)-1-(5-(naphthalen-2-yl)-1H-imidazol-2-yl)-7-oxo-heptyl)benzamide]	1000 to 5000	< 1000
CNC(=O)CCCCC[C@H](NC(=O)c1cccc(-n2nc(C)cc2C)c1)c1ncc(-c2ccc3ccccc3c2)[nH]1 [Entry 42, (S)-3-(3,5-dimethyl-1H-pyrazol-1-yl)-N-(7-(methylamino)-1-(5-(naphthalen-2-yl)-1H-imidazol-2-yl)-7-oxo-heptyl)benzamide]	1000 to 5000	1000 to 5000
CNC(=O)CCCCC[C@H](NC(=O)c1nc2ncccn2n1)c1ncc(-c2ccc3ccccc3c2)[nH]1 [Entry 43, (S)-N-(7-(methylamino)-1-(5-(naphthalen-2-yl)-1H-imidazol-2-yl)-7-oxoheptyl)-[1,2,4]triazolo[1,5-a]pyrimidine-2-carboxamide]	1000 to 5000	> 5000
CNC(=O)CCCCC[C@H](NC(=O)Cn1cnc2ccccc21)c1ncc(-c2ccc3ccccc3c2)[nH]1 [Entry 44, (S)-7-(2-(1H-benzo[d]imidazol-1-yl)acetamido)-N-methyl-7-(5-(naphthalen-2-yl)-1H-imidazol-2-yl)heptanamide]	< 1000	1000 to 5000
